Assay results taken from patent US10301348B2, “Compounds for use in prevention and treatment of neurodegenerative diseases and pain” (Academia Sinica, priority 2013, dated 2019).
“Also recorded” adds a separate entry of the source.

Assays:
[1] = Oral bioavailability / pharmacokinetic study in ICR mice; assay type: in vivo; conditions: male, mouse, plasma, oral 10 mg/kg vs intravenous 1 mg/kg
Method: To measure oral bioavailability of a test compound, blood samples were collected from male ICR mice (6 weeks old; 20-25 g) after oral (10 mg/kg) or intravenous (1 mg/kg) administrations of the test compound. The blood samples collected at the indicated periods were extracted with methanol containing 0.1% formic acid, and then 10 μL of each extracted sample were injected to UPLC-MSMS for quantitation.
Pharmacokinetic Study. The compound was administered as aqueous solutions in normal saline. Male ICR mice were purchased from BioLASCO Taiwan Co., Ltd. To measure oral bioavailability of test compounds (T1-11 and JMF3464), blood samples were collected from male ICR mice (6 weeks old; […]) after oral (10 mg/kg) or intravenous (1 mg/kg) administrations of test compounds. For T1-11, blood samples were collected at 2, 10, 30, 60, 120, 360 minutes after intravenous administration and at 15, 30, 45, 60, 120, 360 minutes after oral administration. For JMF3464, the blood samples were collected at 2, 10, 30, 60, 120, 240, 360, 480 minutes after intravenous administration and at 15, 30, 60, 90, 120, 240, 360, 480 minutes after oral administration. The blood samples were extracted by methanol with 0.1% formic acid, and then 10 μL of the extracted samples were injected to UPLC-MSMS to for quantitation.
The pharmacokinetic parameters were obtained using a pharmacokinetic program WinNonlin, fitting data to a noncompartmental model. […] The total plasma clearance (CL) was calculated as dose/AUCi.v.. The oral bioavailability (F) of the test compound by oral administration was calculated from the AUC0-∞ of the oral dose divided by the AUC0-∞ of the i.v. dose.

[2] = tested on: mice treated with intermittent cold stress; experiment: Intermittent cold stress model of fibromyalgia; assay type: in vivo; conditions: T1-11 i.p.
Method: (§1) FIGS. 10A-C show the analgesic effect of JMF3464 on a mouse model of fibromyalgia. […] Open arrows indicate the time mice received acid injection. Black arrows indicate the time mice received T1-11 (p.o.). […] The analgesic effect of JMF3464 is dose-dependent. The effective dose started from 100 μg/kg (i.p.).
Intermittent cold stress model. The fibromyalgia model was developed by Ueda's group, in which mice were treated with intermittent cold stress for 2 days (Nishiyori and Ueda, 2008 Mol Pain. 4:52). Mice treated with intermittent cold stress developed long-lasting (>2 weeks) mechanical and thermal hyperalgesia. Analgesic effects of JMF3464 (i.p. or p.o.) were tested in these mice 5 days after intermittent cold stress. Mechanical hyperalgesia was assayed by testing the withdrawal response of mouse hindpaws to 0.2-mN von Frey filament stimulation.

[3] = tested on: mutant ATXN2 aggregations; experiment: Filter retardation assay of mutant SCA2 protein aggregation in pSCA2-104Q-EGFP-transfected cells; assay type: cell-based, Rat; conditions: 10 μM, 24 h
Method: (§2) FIGS. 4A-B show the effects of T1-11 in preventing mutant SCA2 gene overexpression-induced protein aggregations and behavioral performance in SCA2 transgenic mice. (A) pSCA2-22Q-EGFP or pSCA2-104Q-EGFP-transfected cells were treated with 10 μM T1-11 or 10 μM JMF1907 (a T1-11-derived A2A-R agonist) for 24 h. Cells were harvested and subjected to a filter retardation assay or image acquisition. (B) Wild type (WT) or transgenic mice (SCA2) drank water with or without T1-11. Rotarod performance was used to measure the behavioral function of mice.
Rat PC12 cells purchased from American Type Culture Collection (ATCC; Manassas, Va., USA) were maintained in DMEM supplemented with 10% horse serum and 5% FBS and incubated in a CO2 incubator (5%) at 37° C. LIPOFECTAMINE™ 2000 (Invitrogen) was used as a vehicle to transfer plasmids into cells according to the manufacture's protocol. Plasmids were kindly provided by Dr. Pulst (Department of Neurology, University of Utah, USA). Normally, 5 μg of DNA combined with 5 μl of LIPOFECTAMINE™ 2000 was applied to each well of 6-well plates. The plating number was (1˜1.5)×10^6 cells/well. After transfections for 6 h, cells were treated with reagents for another 24 h. Images were taken with a Zeiss Axiovert 200M inverted fluorescence microscope (Göttingen, Germany).
Filter retardation assay. […]

[4] = tested on: SCA3 transgenic mice expressing ataxin-3-Q79; experiment: SCA3 transgenic mice: rotarod test and NeuN staining of pontine nuclei; conditions: 4-month-old SCA3 transgenic mice, daily oral 1 mg per day
Method: (A) SCA3 transgenic mice were given drinking water containing vehicle (0.2% DMSO) or T1-11 (0.1 mg/ml) beginning at 4 weeks-old.
Behavioral test. Balance and coordination functions of mice were determined by performing rotarod test. Mice were placed on the moving drum of a rotarod apparatus (Accelerating Model, Ugo Basile Biological Research Apparatus), which was then accelerated until mouse fell from the drum onto a plate to stop the timer. Latency to fall was measured in four daily trials over the course of 4 days.
Immunohistochemical staining. Wild-type or SCA3 transgenic mice were anesthetized and perfused transcardially with 4% paraformaldehyde in PBS. Brain was equilibrated in Tissue-Tek embedding medium and frozen in liquid nitrogen. Coronal sections (20 μm) prepared by cryostat sectioning were permeabilized in 0.1% Triton X-100, and incubated at 4° C. for 48 hours with diluted anti-NeuN monoclonal antiserum (Chemicon). Subsequently, sections were washed and incubated with biotinylated horse anti-mouse IgG followed by incubation with avidin-biotin-horseradish peroxidase complex. The sections were then washed and developed in a diaminobenzidine solution. NeuN-positive neurons were visualized and counted by a Leica DM2500 microscope equipped with a Retiga-2000R CCD camera (QImaging) and a 3-axis computer-controlled MAC 600 motorized stage (Ludl Electronics) with the aid of StereoInvestigator software (MBF Bioscience). Each analysis included the processing of 15 brain sections per mouse.

[5] = tested on: mice with acid-induced chronic widespread pain; experiment: Acid-induced chronic widespread pain model of fibromyalgia; assay type: in vivo
Method: as §1
Acid-induced chronic widespread pain model. The fibromyalgia model was modified from the acid-induced chronic pain model established by Sluka's group (Sluka et al., 2003 Pain. 106:229-239).
Mice were briefly anesthetized with 2% vaporized isoflurane and received an i.m. injection of 20 μL genistein (1 μM) in the left gastrocnemius muscle. After 3 minutes, an injection of 20 μL acid saline (pH 4.0) was given to the same site. The mice then developed long-lasting mechanical hyperalgesia for more than 2 weeks. Analgesic effects of T1-11 (p.o. with an 0.9-mm/7-cm gavage) were tested 4 days after mice had developed the mechanical hyperalgesia. Mechanical hyperalgesia was assayed by testing the withdrawal response of mouse hindpaws to 0.2-mN von Frey filament stimulation.

[6] = tested on: SCA2 transgenic mice (ATAXN2^Q127); experiment: Rotarod performance of SCA2 transgenic mice; assay type: in vivo; conditions: compound in drinking water
Method: as §2
Animals. The C57BL/6 mice were purchased from National Laboratory Animal Center (Taiwan). The transgenic mice (ATAXN2^Q127) were provided by Dr. Pulst. Mice were kept in a soundproof room under a 12/12 h light/dark cycle and controlled temperature (22±2° C.). Food and water were available ad libitum. All efforts were made to minimize the number of animals used and their pain and discomfort, according to the principles and directives of the NIH Guide for the Care and Use of Laboratory Animals. […]
Rotarod performance. […] Motor coordination was assessed using a rotarod apparatus (UGO BASILE, Comerio, Italy) at an accelerated speed (10 to 28 rpm) over a period of 5 min. […] Latency to fall was automatically recorded. […]

[7] = background statement, species not given; cited from earlier work

## OC[C@H]1O[C@@H](n2cnc3c(NCc4ccc(O)cc4)ncnc32)[C@H](O)[C@@H]1O [Compound T1-11, N^6-(4-hydroxybenzyl)adenosine]
[1]
  bioavailability: 2.8%
[2]
  analgesic effect, i.p.: excellent analgesic effects
[3]
  mutant ATXN2 aggregations: effective is preventing mutant ATXN2 aggregations
[4]
  pontine neuronal death (NeuN staining): significantly ameliorated neuronal death in the pontine nuclei; also recorded: significantly alleviated pontine neuronal death
  rotarod performance: significantly better than that of vehicle-treated ataxin-3-Q79 mice; also recorded: significantly improved rotarod performance
[5]; i.p.
  analgesic effect, i.p.: excellent analgesic effects
[5]; p.o., up to 2 mg/kg, von Frey mechanical hyperalgesia
  analgesic effect, oral administration: no analgesic effect
[6]
  behavioral performance (rotarod): effective
[7]
  bioavailability (F): < 5%
